# Laboratory results published in patent publication US6114572A, “Substituted phenols and thiophenols useful as antioxidant agents” (priority 1997, dated 2000).
# Like-named read-outs stand apart in the source and are kept apart here.
# Legend:
# ICAM-1 = conditions: vascular endothelial cells; Mauri, N. et al.; cited from earlier work
# VCAM-1 = conditions: vascular endothelial cells; Mauri, N. et al.; cited from earlier work
# [1] = Animal parameters (food, body weight, liver weight, mortality) in male Sprague-Dawley rats; type: in vivo; conditions: for mortality at 96 h: po, read-out: mortality (deaths per group); for mortality at 96 h / body wt., percent of control / lw/bw (liver weight/body weight), percent of control: rat
# From the text: (§1) A typical experiment consists of 4-6 groups of rats (N=5 per group) with 1 group being a control which receives no MDL compound and the other groups being treated with 0.3% MDL compound. Some of the compounds are either repeated at 0.3% or evaluated again at the lower dose of 0.1%. House Male Sprague-Dawley rats, 50-100 g, (Harlan Laboratories, Indianapolis, Ind.) in groups of 5, feeding ad libitum water and Purina Rodent chow (#5002) with or without MDL compound as a dietary admixture for 4 days. Make dietary admixtures (0.3%) by mixing 1.2 grams of an MDL compound with 400 grams of Purina rodent chow (#5002). Mix the MDL compound with approximately 50 grams of food using a mortar and pestle. This is added to the remainder of the food and mixed for 3 hours on a rotary mixer. In the morning of day 5, anesthetize non-fasted rats with carbon dioxide, and collect blood by cardiac puncture. Sacrifice rats by cervical dislocation. Record body weights and liver weights in grams. Record food consumption as grams·day^-1 ·rat^-1. Deaths are recorded as mortality. Use aliquots of fresh serum for clinical chemistries, thiobarbituric acid reactive substances (TBARS) and conjugated diene measurements. Freeze aliquots of serum (~0.5 mL) and whole livers at -20° C. for compound and metabolite concentration determination at a later time.
# [2] = HPLC quantitation of compound and metabolite concentration in rat serum and liver; conditions: in vivo; for concentration at 96 h: po, 0.3% in diet, 4 days
# From the text: as §1
# Determine serum and liver concentrations of parent compound and the metabolites, bisphenol and diphenoquinone, by reverse phase HPLC using a Waters 990 Powerline system. Homegenize livers (1 gram samples) with 5.0 mL PBS, pH 7.4, using a Polytron tissue homogenizer at setting 5 for 20-30 seconds. Extract serum or liver homogenates as follows: add 100 μL of either serum or homogenate to 2.0 mL diethyl ether:ethanol (3:1) while vortexing the tube. Cap the sample tubes and centrifuge for 10 min at 5° C. at 3500 rpm in a Beckman GPKR centrifuge with a GH 3.7 rotor. Transfer the supernatants to clean tubes and dry under N2. Reconstitute samples with 200 μL of acetonitrile:hexane:0.1 M ammonium acetate (90:6.5:3.5, by vol.). Then, inject 100 μL onto a Waters Deltapak C18-300 Å column, and elute with an 83% acetonitrile:17% water mobile phase at a flow rate of 1.5 mL/min. Record absorbances at the wavelengths of 240, 254, and 420nm. Calculate compound concentrations from known quantities of authentic parent compounds after correction for recovery. […]. Calculate concentrations as μg/mL of serum and μg/g of liver.
# Male Sprague-Dawley Rats = experiment: Serum clinical chemistries in male Sprague-Dawley rats; type: in vivo
# Protocol: Measurement of Antioxidant Activity and Bioavailability of Compounds of Formula (1) By In Vivo Screening in Male Sprague-Dawley Rats
# as §1, with “Some of the compounds are either repeated at 0.3% or evaluated again at the lower dose of 0.1%. House Male Sprague-Dawley rats, 50-100 g, (Harlan Laboratories, Indianapolis, Ind.) in groups of 5, feeding ad libitum water and Purina Rodent chow (#5002) with or without MDL compound as a dietary admixture for 4 days. Make dietary admixtures (0.3%) by mixing 1.2 grams of an MDL compound with 400 grams of Purina rodent chow (#5002).” left out
# Allow blood to clot at room temperature for 30 minutes. Obtain serum after centrifugation for 10 min at 4° C. at 3000 rpm in a Beckman J-6M/E centrifuge with a JS-4.2 rotor. […] Calculate ALP, ALT, and AST as units/L. Calculate cholesterol, triglycerides, and glucose as mg/dL.
# [3] = system: oxidation of serum lipids; experiment: TBARS assay (oxidation of serum lipids) in male Sprague-Dawley rats; type: in vivo; conditions: feed or water, 96 h, rat serum, 4 days, N = 5, CuSO4-initiated, 3 hr, read-out: TBARS, percent of control
# Protocol: as §1, with “Some of the compounds are either repeated at 0.3% or evaluated again at the lower dose of 0.1%. House Male Sprague-Dawley rats, 50-100 g, (Harlan Laboratories, Indianapolis, Ind.) in groups of 5, feeding ad libitum water and Purina Rodent chow (#5002) with or without MDL compound as a dietary admixture for 4 days. Make dietary admixtures (0.3%) by mixing 1.2 grams of an MDL compound with 400 grams of Purina rodent chow (#5002).” left out
# In this assay the oxidation of serum lipids is initiated with CuSO4, resulting in the formation of aldehydes, such as malondialdehyde (MDA). Upon incubation with thiobarbituric acid, the absorbance of the aldehydes can be detected at 530-540 nm. […] Measure TBARS as follows: mix 100 μL of serum with 400 μL of a 5 mmol CuSO4 solution and incubate at 37° C. for 3 hr. Stop the reactions by addition of 1.0 mL of 20% trichloroacetic acid. […] Centrifuge samples briefly to pellet undissolved material, and transfer the supernatants to a 96-well microtiter plate. Measure absorbances at 540 nm using a Biotek model EL311 microplate reader. The nmoles of MDA produced are calculated from a standard curve of 0 to 10 nmoles of MDA prepared from malonaldehyde bis(dimethylacetal). Serum samples from treated rats are compared to serum samples from control rats that received no MDL compound.
# [4] = in vivo, 0.3% in diet, 4 days, N = 5
# [5] = mean N = 5, read-out: Liver Parent (parent compound concentration)
# [6] = mean N = 5, read-out: Serum Parent (parent compound concentration)
# [7] = rat serum, 0.3% in diet, 4 days, N = 5
SMILES,"food (grams eaten per day per rat), percent of control ([1]; in vivo) [%]","mortality at 96 h [1, 4] [%]","body wt., percent of control ([1]; 0.3% in diet, 4 days, N = 5) [%]",Liver Quin (diphenoquinone concentration) ([2]; 5760 min),Serum Bis (bisphenol concentration) ([2]; 5760 min),Serum Quin (diphenoquinone concentration) ([2]; 5760 min),"concentration at 96 h [2, 5] [ng/g]","concentration at 96 h [2, 6] [ng/mL]","ALP (alkaline phosphatase), percent of control (Male Sprague-Dawley Rats; [7]) [%]","ALT (alanine aminotransferase), percent of control (Male Sprague-Dawley Rats; [7]) [%]","GLUC (glucose), percent of control (Male Sprague-Dawley Rats; rat, in vivo) [%]",response vs control in vivo at 0.3 % in diet [3] [%],"food (grams eaten per day per rat), percent of control ([1]; 0.3% in diet, 4 days, N = 5) [%]","AST (aspartate aminotransferase), percent of control (Male Sprague-Dawley Rats; [7]) [%]",Liver Bis (bisphenol concentration) ([2]; 5760 min),Liver Parent (parent compound concentration) ([2]; 5760 min),"body wt., percent of control ([1]; in vivo) [%]",further results
CC(=O)N[C@@H](CS)C(=O)O [N-acetylcysteine],,,,,,,,,,,,,,,,,,inhibition of cytokine-induced expression of ICAM-1 (ICAM-1): not ICAM-1; inhibition of cytokine-induced expression of VCAM-1 (VCAM-1): inhibit cytokine-induced expression of VCAM-1
"CC(C)=CCCC(C)CCSc1cc(C(C)(C)C)c(O)c(C(C)(C)C)c1 (stereo not drawn) [103,960]",105,0,100,0,0,0,47300,8700,125,117,110,24,,,,,,"lw/bw (liver weight/body weight), percent of control ([1]; 0.3% in diet, 4 days, N = 5): 130%; AST (aspartate aminotransferase), percent of control (Male Sprague-Dawley Rats; rat, in vivo): 102%"
"CC(CCCC(C)(C)O)CCSc1cc(C(C)(C)C)c(O)c(C(C)(C)C)c1 (stereo not drawn) [104,487]",,0,95,0,0,0,3800,4100,137,129,,87,90,124,,,,"GLUC (glucose), percent of control (Male Sprague-Dawley Rats; [7]): 92%"
"CC(C)=CCC[C@H](C)CCOc1cc(C(C)(C)C)c(O)cc1C(C)(C)C [107,059]",95,0,95,0,0,0,,,,,96,78,,140,0,0,,"lw/bw (liver weight/body weight), percent of control ([1]; 0.3% in diet, 4 days, N = 5): 107%; Serum Parent (parent compound concentration) ([2]; 5760 min): 0; ALP (alkaline phosphatase), percent of control (Male Sprague-Dawley Rats; rat, in vivo): 118%; ALT (alanine aminotransferase), percent of control (Male Sprague-Dawley Rats; rat, in vivo): 116%"
"CC(C)=CCC[C@H](C)CCSc1ccc(O)c(C(C)(C)C)c1 [103,714]",,0,103,0,0,0,,2700,111,120,95,21,102,104,0,0,,
"CC(C)=CCC[C@@H](C)CCOc1cc(C(C)(C)C)c(O)c(C(C)(C)C)c1 [104,535]",95,0,,0,0,0,60300,16300,151,108,,11,,,0,,102,"GLUC (glucose), percent of control (Male Sprague-Dawley Rats; [7]): 112%; AST (aspartate aminotransferase), percent of control (Male Sprague-Dawley Rats; rat, in vivo): 94%"
"CC(C)=CCC[C@H](C)CCOc1ccc(O)c(C(C)(C)C)c1 [103,649]",95,0,,0,0,0,,1400,74,119,101,29,,82,0,0,94,"response vs control in vivo at 0.3 % in diet (Male Sprague-Dawley Rats; Rattus norvegicus, feed or water, 96 h, read-out: TRIG (triglycerides), percent of control): 143%"
"CC(C)CCCC(C)CCOc1cc(C(C)(C)C)c(O)c(C(C)(C)C)c1 (stereo not drawn) [104,102]",,0,97,0,0,0,481000,32800,,114,98,71,92,82,0,,,"ALP (alkaline phosphatase), percent of control (Male Sprague-Dawley Rats; rat, in vivo): 101%"
"CC(C)CCCC(C)CCOc1ccc(O)c(C(C)(C)C)c1 (stereo not drawn) [104,191]",76,0,,0,0,0,16100,6900,81,149,106,20,,146,0,,92,
S=C(S)N1CCCC1 [pyrollidine dithiocarbamate],,,,,,,,,,,,,,,,,,inhibition of cytokine-induced expression of ICAM-1 (ICAM-1): not ICAM-1; inhibition of cytokine-induced expression of VCAM-1 (VCAM-1): inhibit cytokine-induced expression of VCAM-1
